Experimental data reported in PubChem BioAssay AID248 (DTP/NCI, 2004).
Values joined by “and” are separate entries in the source; they are usually repeats but may differ in a detail not shown here. Equal values may be shown once. Inconclusive results and toxic doses are left out. Rule as the data show it: active = T/C of 150% or more; inactive = T/C below 125%.

Tested on: L1210 leukemia ip in BDF1 mice, survival T/C
Assay: NCI In Vivo Anticancer Drug Screen. Data for tumor model L1210 Leukemia (intraperitoneal) in B6D2F1 (BDF1) mice
Conditions: endpoint: mean survival time, higher = longer survival
In short: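 Read-out is survival time, reported as the treated-group measurement over the vehicle-control measurement.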

[1] = dose: 100.0 mg/kg/injection, schedule: Q04DX003 (ip), vehicle: saline with Tween-80
[2] = dose: 200.0 mg/kg/injection, schedule: Q04DX003 (ip), vehicle: saline with Tween-80
[3] = dose: 400.0 mg/kg/injection, schedule: Q04DX003 (ip), vehicle: saline with Tween-80
[4] = dose: 12.5 mg/kg/injection, schedule: Q04DX003 (ip), vehicle: Klucel (hydroxypropylcellulose) (HPC)
[5] = dose: 25.0 mg/kg/injection, schedule: Q04DX003 (ip), vehicle: Klucel (hydroxypropylcellulose) (HPC)
[6] = dose: 75.0 mg/kg/injection, schedule: Q01DX001 (ip), vehicle: saline
[7] = dose: 150.0 mg/kg/injection, schedule: Q01DX001 (ip), vehicle: saline
[8] = dose: 300.0 mg/kg/injection, schedule: Q01DX001 (ip), vehicle: saline
[9] = dose: 100.0 mg/kg/injection, schedule: Q04DX003 (ip), vehicle: Klucel (hydroxypropylcellulose) (HPC)
[10] = dose: 200.0 mg/kg/injection, schedule: Q04DX003 (ip), vehicle: Klucel (hydroxypropylcellulose) (HPC)
[11] = dose: 400.0 mg/kg/injection, schedule: Q04DX003 (ip), vehicle: Klucel (hydroxypropylcellulose) (HPC)

Measured: T/C

CCOC(=O)Nc1ccccc1-c1ccccc1
inactive: dose: 100.0 mg/kg/injection, schedule: Q04DX002 (sc), vehicle: olive oil, sesame oil, peanut oil 94 % of control | dose: 200.0 mg/kg/injection, schedule: Q04DX002 (sc), vehicle: olive oil, sesame oil, peanut oil 105 % of control | dose: 400.0 mg/kg/injection, schedule: Q04DX002 (sc), vehicle: olive oil, sesame oil, peanut oil 97 % of control

Cc1ccc(NC(=O)C(Cl)(Cl)Cl)cc1[N+](=O)[O-]
inactive: dose: 100.0 mg/kg/injection, schedule: Q01DX009 (ip), vehicle: saline with Tween-80 94 % of control | dose: 200.0 mg/kg/injection, schedule: Q01DX009 (ip), vehicle: saline with Tween-80 100 % of control | dose: 400.0 mg/kg/injection, schedule: Q01DX009 (ip), vehicle: saline with Tween-80 104 % of control

CCC(=O)C(CCN(C)C)c1ccccn1 (stereo unspecified)
inactive: dose: 20.0 mg/kg/injection, schedule: Q01DX Z (ip), vehicle: saline 103 % of control | dose: 30.0 mg/kg/injection, schedule: Q01DX Z (ip), vehicle: saline 91 % of control | dose: 44.0 mg/kg/injection, schedule: Q01DX Z (ip), vehicle: saline 91 % of control | dose: 66.0 mg/kg/injection, schedule: Q01DX Z (ip), vehicle: saline 93 % of control

COc1ccc(/C=C\c2nc3ccccc3c(=O)[nH]2)cc1
inactive: [1] 95 % of control | [2] 88 % of control | [3] 95 % of control

CC(C)(C)C1CCC(OS(C)(=O)=O)C(OS(C)(=O)=O)C1 (stereo unspecified)
inactive: [4] 102 % of control | [5] 100 % of control

CCOP(=O)(OCC)OCc1ccc(C)cc1
inactive: [1] 94 % of control | [2] 102 % of control | [3] 97 % of control

CC[N+]1(C)CCOCC1
inactive: [6] 96 % of control and 94 % of control and 107 % of control | [7] 94 % of control and 100 % of control and 98 % of control | [8] 96 % of control and 98 % of control

CCCCCCC1(C)CCC(=O)O1 (stereo unspecified)
inactive: dose: 100.0 mg/kg/injection, schedule: Q01DX001 (ip), vehicle: saline 94 % of control | dose: 200.0 mg/kg/injection, schedule: Q01DX001 (ip), vehicle: saline 94 % of control | dose: 400.0 mg/kg/injection, schedule: Q01DX001 (ip), vehicle: saline 100 % of control

O=[As](O)(O)CCc1ccccc1
inactive: [4] 101 % of control | [5] 108 % of control

c1ccc(SCC2C3CSC4C3CC2C4Sc2ccccc2)cc1 (stereo unspecified)
inactive: dose: 100.0 mg/kg/injection, schedule: Q01DX001 (ip), vehicle: saline with Tween-80 98 % of control | dose: 200.0 mg/kg/injection, schedule: Q01DX001 (ip), vehicle: saline with Tween-80 105 % of control | dose: 400.0 mg/kg/injection, schedule: Q01DX001 (ip), vehicle: saline with Tween-80 94 % of control

Cc1ccc([N+](=O)[O-])cc1NC(=O)N1CCCCC1C (stereo unspecified)
inactive: dose: 100.0 mg/kg/injection, schedule: Q01DX001 (ip), vehicle: Klucel (hydroxypropylcellulose) (HPC) 97 % of control | dose: 100.0 mg/kg/injection, schedule: Q01DX009 (ip), vehicle: Klucel (hydroxypropylcellulose) (HPC) 106 % of control and 90 % of control | dose: 100.0 mg/kg/injection, schedule: Q04DX002 (ip), vehicle: Klucel (hydroxypropylcellulose) (HPC) 97 % of control and 102 % of control | [9] 100 % of control | dose: 200.0 mg/kg/injection, schedule: Q01DX001 (ip), vehicle: Klucel (hydroxypropylcellulose) (HPC) 111 % of control | dose: 200.0 mg/kg/injection, schedule: Q01DX009 (ip), vehicle: Klucel (hydroxypropylcellulose) (HPC) 92 % of control and 97 % of control | dose: 200.0 mg/kg/injection, schedule: Q04DX002 (ip), vehicle: Klucel (hydroxypropylcellulose) (HPC) 97 % of control and 104 % of control | [10] 88 % of control | dose: 400.0 mg/kg/injection, schedule: Q01DX001 (ip), vehicle: Klucel (hydroxypropylcellulose) (HPC) 101 % of control | dose: 400.0 mg/kg/injection, schedule: Q01DX009 (ip), vehicle: Klucel (hydroxypropylcellulose) (HPC) 108 % of control and 87 % of control | dose: 400.0 mg/kg/injection, schedule: Q04DX002 (ip), vehicle: Klucel (hydroxypropylcellulose) (HPC) 93 % of control and 102 % of control | [11] 104 % of control

FC(F)(F)c1nc(Cl)c2cn[nH]c2n1
inactive: dose: 44.0 mg/kg/injection, schedule: Q01DX Z (ip), vehicle: methylcellulose (MC) 104 % of control | dose: 66.0 mg/kg/injection, schedule: Q01DX Z (ip), vehicle: methylcellulose (MC) 103 % of control | dose: 100.0 mg/kg/injection, schedule: Q01DX Z (ip), vehicle: methylcellulose (MC) 100 % of control

NNC(=O)C1CCC1C(=O)NN (stereo unspecified)
inactive: [6] 103 % of control | dose: 75.0 mg/kg/injection, schedule: Q04DX003 (ip), vehicle: saline 96 % of control | [7] 99 % of control | dose: 150.0 mg/kg/injection, schedule: Q04DX003 (ip), vehicle: saline 103 % of control | [8] 97 % of control | dose: 300.0 mg/kg/injection, schedule: Q04DX003 (ip), vehicle: saline 103 % of control

CC(=O)OCCC/C(=C\c1cccc([N+](=O)[O-])c1)[N+](=O)[O-]
inactive: dose: 100.0 mg/kg/injection, schedule: Q01DX001 (ip), vehicle: other 111 % of control

CCSc1nc(C(OC)OC)c(Cc2ccccc2)c(=O)[nH]1
inactive: [9] 95 % of control | [10] 89 % of control | [11] 100 % of control

CC(N)(Cc1ccc(O)c(O)c1)C(=O)O (stereo unspecified)
inactive: dose: 25.0 mg/kg/injection, schedule: Q01DX009 (ip), vehicle: saline 109 % of control | dose: 25.0 mg/kg/injection, schedule: Q04DX003 (ip), vehicle: saline 103 % of control | dose: 50.0 mg/kg/injection, schedule: Q01DX009 (ip), vehicle: saline 101 % of control | dose: 50.0 mg/kg/injection, schedule: Q04DX003 (ip), vehicle: saline 95 % of control | dose: 100.0 mg/kg/injection, schedule: Q01DX009 (ip), vehicle: saline 105 % of control | dose: 100.0 mg/kg/injection, schedule: Q04DX003 (ip), vehicle: saline 103 % of control | dose: 200.0 mg/kg/injection, schedule: Q01DX009 (ip), vehicle: saline 111 % of control | dose: 200.0 mg/kg/injection, schedule: Q04DX003 (ip), vehicle: saline 106 % of control | dose: 400.0 mg/kg/injection, schedule: Q01DX009 (ip), vehicle: saline 117 % of control | dose: 400.0 mg/kg/injection, schedule: Q04DX003 (ip), vehicle: saline 103 % of control

CC12CCC(OC3OC(CO)C(OC4OC(CO)C(O)C(O)C4O)C(O)C3O)CC1CCC1C2CCC2(C)C(C3=CC(=O)OC3)CCC12O (stereo unspecified)
inactive: dose: 10.0 mg/kg/injection, schedule: Q01DX009 (ip), vehicle: saline 102 % of control | dose: 20.0 mg/kg/injection, schedule: Q01DX009 (ip), vehicle: saline 116 % of control | dose: 40.0 mg/kg/injection, schedule: Q01DX009 (ip), vehicle: saline 102 % of control

O=C(O)C1CCCCC1
inactive: dose: 50.0 mg/kg/injection, schedule: Q01DX001 (ip), vehicle: carboxymethylcellulose (CMC) 96 % of control | dose: 100.0 mg/kg/injection, schedule: Q01DX001 (ip), vehicle: carboxymethylcellulose (CMC) 98 % of control | dose: 200.0 mg/kg/injection, schedule: Q01DX001 (ip), vehicle: carboxymethylcellulose (CMC) 104 % of control | dose: 400.0 mg/kg/injection, schedule: Q01DX001 (ip), vehicle: carboxymethylcellulose (CMC) 96 % of control
